# Where two headings read alike, the source gives them in different places.
# Test: Plasma toxicokinetics after single i.v. bolus
# Type: in vivo, Sprague-Dawley rats
# Conditions: for concentration at 4 h / concentration at 6 h / concentration at 1 h / concentration at 2 h / concentration at 8 h / concentration at 0.5 h / half-life: Sprague-Dawley, rat, plasma; for concentration at 4 h / concentration at 6 h / concentration at 1 h / concentration at 2 h / concentration at 8 h / concentration at 0.5 h: intravenous; for half-life: iv
# Protocol: Six rats (3 males and 3 females) were dosed per dose group. […] Plasma and brain homogenates were stored at −80° C. until analysis.
# An additional 48 rats (24 males and 24 females) received a single intravenous dose via the tail vein at the same doses as mentioned above. At 30 and 360 minutes post administration, 6 rats (3 males and 3 females) per dose group, per time point were euthanized, bled via cardiac puncture, and perfused, and brains were collected. The brains were homogenized. Blood was spun, and plasma was collected. Plasma and brain homogenate were stored at −80° C.
# Four aliquots of each dose level formulation were collected and stored at −80° C. The test compound, corresponding dose level, number of animals, and sample collection times for Phase I of the study are shown in Table 3. The test compound, corresponding dose level, number of animals, and sample collection times for Phase II of the study are shown in Table 4. The physical signs of each animal were monitored following administration of the test compound.
# The animals were weighed prior to dosing and received a single i.v. dose of either test compound at a volume of 5 mL/kg. Blood was collected via the venus plexus (retro-orbital) into tubes containing (K2) EDTA. No more than 0.5 mL was collected per time point. […] The brain was removed, weighed, homogenized in sterile 0.9% saline at a volume equal to its weight, and stored at −80° C.
# Plasma was separated according to the instructions for MICROTAINER® brand collection tubes (3 minutes, 2000×g). Plasma was decanted into microfuge tubes and stored at −80° C. Remaining test compound was stored at −80° C.
# The signal was optimized for each compound by electrospray ionization (ESI) positive or negative ionization mode. A single ion mode (SIM) scan was used to optimize the Fragmentor for the precursor ion and a product ion analysis was used to identify the best fragment for analysis and to optimize the collision energy. The fragment which gave the most sensitive and specific signal was chosen.
# Sample preparation. […] The amount of the test agent in the supernatant was determined by liquid chromatography tandem mass spectrometry (LC/MS/MS).
# Analysis. Samples were analyzed by LC/MS/MS using an Agilent 6410 mass spectrometer coupled with an Agilent 1200 high pressure liquid chromatography (HPLC) and a CTC PAL chilled autosampler, all controlled by MassHunter software (Agilent). After separation on a hydrophilic interaction liquid chromatography (HILIC) HPLC column (Sepax) using an acetonitrile-ammonium acetate/acetic acid gradient system, peaks were analyzed by mass spectrometry (MS) using ESI ionization in multiple reaction monitoring (MRM) mode. MassHunter software was used to calculate the concentration of the test compounds in samples from the peak area using the appropriate calibration curves.
# Calibration samples. Calibration curves were determined for both rat plasma and brain homogenate. Calibration samples were prepared by diluting a 50× stock solution of the test compound in PBS with blank matrix to the appropriate concentration and these samples were prepared as described above in the sample preparation.
# [1] = 0.75 mg/kg, Concentration of anatabine in rat plasma, Anatabine 0.75 mg/kg, rat plasma, rats of group 3
# [2] = 0.75 mg/kg, Concentration of anatabine in rat plasma, Anatabine 0.75 mg/kg, rat plasma, rats of group 4
# [3] = 1 mg/kg, Concentration of anatabine in rat plasma, Anatabine 1.0 mg/kg, rat plasma, rats of group 5
# [4] = 1 mg/kg, Concentration of anatabine in rat plasma, Anatabine 1.0 mg/kg, rat plasma, rats of group 6
# [5] = both sexes, 0.1 mg/kg, Anatabine 0.1 mg/kg, male and female, read-out: Avg. Conc. rat plasma, combined male and female
# [6] = both sexes, 0.1 mg/kg, Concentration of anatabine in rat plasma, Anatabine 0.1 mg/kg, Rat Plasma, individual rats
# [7] = both sexes, 0.75 mg/kg, Anatabine 0.75 mg/kg, male and female, read-out: Avg. Conc. rat plasma, combined male and female
# [8] = both sexes, 1 mg/kg, Anatabine 1.0 mg/kg, male and female, read-out: Avg. Conc. rat plasma, combined male and female
compound,measurement,setting,value
"C1=CCC(c2cccnc2)NC1 (racemic) [Anatabine, 1,2,3,6-tetrahydro-[2,3′]bipyridinyl]",Avg. Conc. rat plasma,"Anatabine 0.1 mg/kg, female, 8 hr",<LLQ
same,Avg. Conc. rat plasma,"Anatabine 0.1 mg/kg, female, 24 hr",<LLQ
same,"Avg. Conc. rat plasma, combined male and female","Anatabine 0.1 mg/kg, male and female, 8 hr",<LLQ
same,"Avg. Conc. rat plasma, combined male and female","Anatabine 0.1 mg/kg, male and female, 24 hr",<LLQ
same,Avg. Conc. rat plasma,"Anatabine 0.1 mg/kg, male, 6 hr (1st 6 hr line)",<LLQ
same,Avg. Conc. rat plasma,"Anatabine 0.1 mg/kg, male, 8 hr",<LLQ
same,Avg. Conc. rat plasma,"Anatabine 0.1 mg/kg, male, 24 hr",<LLQ
same,Avg. Conc. rat plasma,"Anatabine 0.75 mg/kg, female, 24 hr",<LLQ
same,"Avg. Conc. rat plasma, combined male and female","Anatabine 0.75 mg/kg, male and female, 24 hr",<LLQ
same,Avg. Conc. rat plasma,"Anatabine 0.75 mg/kg, male, 24 hr",<LLQ
same,Avg. Conc. rat plasma,"Anatabine 1.0 mg/kg, female, 24 hr",<LLQ
same,"Avg. Conc. rat plasma, combined male and female","Anatabine 1.0 mg/kg, male and female, 24 hr",<LLQ
same,Avg. Conc. rat plasma,"Anatabine 1.0 mg/kg, male, 24 hr",<LLQ
same,concentration at 4 h,"0.1 mg/kg, Concentration of anatabine in rat plasma, Anatabine 0.1 mg/kg, Rat Plasma, individual rats",3 ng/mL
same,concentration at 6 h,"0.1 mg/kg, Concentration of anatabine in rat plasma, Anatabine 0.1 mg/kg, rat plasma, 6 hr, rats 2A-2C",3 ng/mL
same,concentration at 1 h,[1],153 ng/mL
same,concentration at 1 h,[2],146 ng/mL
same,concentration at 2 h,[1],73 ng/mL
same,concentration at 2 h,[2],89 ng/mL
same,concentration at 4 h,[1],29 ng/mL
same,concentration at 4 h,[2],45 ng/mL
same,concentration at 8 h,"0.75 mg/kg, Concentration of anatabine in rat plasma, Anatabine 0.75 mg/kg, rat plasma, 8 hr, rats of group 3",8 ng/mL
same,concentration at 8 h,"0.75 mg/kg, Concentration of anatabine in rat plasma, Anatabine 0.75 mg/kg, rat plasma, 8 hr, rats of group 4",10 ng/mL
same,concentration at 0.5 h,"1 mg/kg, Concentration of anatabine in rat plasma, Anatabine 1.0 mg/kg, rat plasma, 0.5 hr, rats of group 5",288 ng/mL
same,concentration at 0.5 h,"1 mg/kg, Concentration of anatabine in rat plasma, Anatabine 1.0 mg/kg, rat plasma, 0.5 hr, rats of group 6",222 ng/mL
same,concentration at 1 h,[3],257 ng/mL
same,concentration at 1 h,[4],218 ng/mL
same,concentration at 2 h,[3],121 ng/mL
same,concentration at 2 h,[4],147 ng/mL
same,concentration at 4 h,[3],36 ng/mL
same,concentration at 4 h,[4],73 ng/mL
same,concentration at 6 h,"1 mg/kg, Concentration of anatabine in rat plasma, Anatabine 1.0 mg/kg, rat plasma, 6 hr, rats of group 6",33 ng/mL
same,concentration at 8 h,"1 mg/kg, Concentration of anatabine in rat plasma, Anatabine 1.0 mg/kg, rat plasma, 8 hr, rats of group 5",8 ng/mL
same,concentration at 8 h,"1 mg/kg, Concentration of anatabine in rat plasma, Anatabine 1.0 mg/kg, rat plasma, 8 hr, rats of group 6",19 ng/mL
same,t1/2,"anatabine 0.1 mg/kg single i.v., female rats",1.64 ± 0.59 h
same,t1/2,"anatabine 0.75 mg/kg single i.v., male rats",1.64 ± 0.12 h
same,t1/2,"anatabine 0.75 mg/kg single i.v., rat plasma, M + F",1.68 ± 0.09 h
same,t1/2,"anatabine 1.0 mg/kg single i.v., rat plasma, M + F",1.64 ± 0.25 h
same,concentration at 0.5 h,"both sexes, 0.1 mg/kg, Anatabine 0.1 mg/kg, male and female, 0.5 hr (1st 0.5 hr line), n=12, read-out: Avg. Conc. rat plasma, combined male and female",22.9 ng/mL
same,concentration at 1 h,[5],8 ng/mL
same,concentration at 2 h,[5],8.7 ng/mL
same,concentration at 4 h,[5],5.2 ng/mL
same,concentration at 6 h,"both sexes, 0.1 mg/kg, Anatabine 0.1 mg/kg, male and female, 6 hr (1st 6 hr line), n=6, read-out: Avg. Conc. rat plasma, combined male and female",4.3 ng/mL
same,concentration at 6 h,"both sexes, 0.1 mg/kg, Anatabine 0.1 mg/kg, male and female, 6 hr (2nd 6 hr line), n=4, read-out: Avg. Conc. rat plasma, combined male and female",4.5 ng/mL
same,concentration at 1 h,[6],10 ng/mL
same,concentration at 2 h,[6],6 ng/mL
same,concentration at 0.5 h,"both sexes, 0.75 mg/kg, Anatabine 0.75 mg/kg, male and female, 0.5 hr (1st 0.5 hr line), n=12, read-out: Avg. Conc. rat plasma, combined male and female",257 ng/mL
same,concentration at 0.5 h,"both sexes, 0.75 mg/kg, Anatabine 0.75 mg/kg, male and female, 0.5 hr (2nd 0.5 hr line), n=6, read-out: Avg. Conc. rat plasma, combined male and female",328 ng/mL
same,concentration at 1 h,[7],162 ng/mL
same,concentration at 2 h,[7],91.7 ng/mL
same,concentration at 4 h,[7],40 ng/mL
same,concentration at 6 h,"both sexes, 0.75 mg/kg, Anatabine 0.75 mg/kg, male and female, 6 hr (1st 6 hr line), n=12, read-out: Avg. Conc. rat plasma, combined male and female",19.3 ng/mL
same,concentration at 6 h,"both sexes, 0.75 mg/kg, Anatabine 0.75 mg/kg, male and female, 6 hr (2nd 6 hr line), n=6, read-out: Avg. Conc. rat plasma, combined male and female",22.5 ng/mL
same,concentration at 8 h,"both sexes, 0.75 mg/kg, Anatabine 0.75 mg/kg, male and female, 8 hr, read-out: Avg. Conc. rat plasma, combined male and female",10 ng/mL
same,concentration at 0.5 h,"both sexes, 1 mg/kg, Anatabine 1.0 mg/kg, male and female, 0.5 hr (1st 0.5 hr line), n=12, read-out: Avg. Conc. rat plasma, combined male and female",319 ng/mL
same,concentration at 0.5 h,"both sexes, 1 mg/kg, Anatabine 1.0 mg/kg, male and female, 0.5 hr (2nd 0.5 hr line), n=6, read-out: Avg. Conc. rat plasma, combined male and female",384 ng/mL
same,concentration at 1 h,[8],231 ng/mL
same,concentration at 2 h,[8],143 ng/mL
same,concentration at 4 h,[8],51.5 ng/mL
same,concentration at 6 h,"both sexes, 1 mg/kg, Anatabine 1.0 mg/kg, male and female, 6 hr (1st 6 hr line), n=12, read-out: Avg. Conc. rat plasma, combined male and female",24.3 ng/mL
same,concentration at 6 h,"both sexes, 1 mg/kg, Anatabine 1.0 mg/kg, male and female, 6 hr (2nd 6 hr line), n=6, read-out: Avg. Conc. rat plasma, combined male and female",25 ng/mL
same,concentration at 8 h,"both sexes, 1 mg/kg, Anatabine 1.0 mg/kg, male and female, 8 hr, read-out: Avg. Conc. rat plasma, combined male and female",12.7 ng/mL
same,half-life,"both sexes, 0.1 mg/kg, anatabine 0.1 mg/kg single i.v., rat plasma, M + F, read-out: t1/2 (converted)",1.44 ± 0.48 h
same,half-life,"both sexes, elimination half-life (t1/2), range over the anatabine treatment groups, anatabine 0.1-1.0 mg/kg single i.v., rats M + F",1.64 to 1.68 h
same,concentration at 0.5 h,"female, 0.1 mg/kg, Anatabine 0.1 mg/kg, female, 0.5 hr (1st 0.5 hr line), read-out: Avg. Conc. rat plasma",13 ng/mL

# Reference: patent publication US20120196899A1, “METHODS AND PRODUCTS FOR TREATING INFLAMMATION” (Rock Creek Pharmaceuticals, Inc., priority 2010, published 2012)
